The assay has as its system A2780 cells. Nature of the assay: In-vitro cell proliferation assay (SRB, 72 hours). The following applies: Homo sapiens, A2780, 72 h, A2780 cells, 72 hours, SRB; read-out: Cell Proliferation (IC50). The assay is classed as cell-based.
As to `Cc1cc(C)n(CCC(=O)N2CCC3(CC2)CC3CNC(=O)c2cc3ccncc3o2)n1` (stereo not drawn) [Example 63, N-[[6-[3-(3,5-dimethylpyrazol-1-yl)propanoyl]-6-azaspiro[2.5]octan-2-yl]methyl]furo[2,3-c]pyridine-2-carboxamide], the IC50 amounted to 1390 nM.

For `NC(=O)N1CCCC1C(=O)N1CCC2(CC1)CC2CNC(=O)c1cc2ccncc2o1` (stereo not drawn) [Example 64, N-[[6-(1-carbamoylpyrrolidine-2-carbonyl)-6-azaspiro[2.5]octan-2-yl]methyl]furo[2,3-c]pyridine-2-carboxamide], the IC50 is 2000 nM.

As to `O=C(NCC1CC12CCN(C(=O)CCN1CCOCC1)CC2)c1cc2ccncc2o1` (stereo not drawn) [Example 65, N-[[6-(3-morpholinopropanoyl)-6-azaspiro[2.5]octan-2-yl]methyl]furo[2,3-c]pyridine-2-carboxamide], the IC50 stood at 931 nM.

Regarding `O=C(NCC1CC12CCN(C(=O)C1CCS(=O)(=O)C1)CC2)c1cc2ccncc2o1` (stereo not drawn) [Example 66, N-[[6-(1,1-dioxothiolane-3-carbonyl)-6-azaspiro[2.5]octan-2-yl]methyl]furo[2,3-c]pyridine-2-carboxamide], the IC50 stood at 2000 nM.

`Cc1cc(C)n(CC(=O)N2CCC3(CC2)CC3CNC(=O)c2cc3ccncc3o2)n1` (stereo not drawn) [Example 67, N-[[6-[2-(3,5-dimethylpyrazol-1-yl)acetyl]-6-azaspiro[2.5]octan-2-yl]methyl]furo[2,3-c]pyridine-2-carboxamidc]: the IC50 was 193 nM.

Take `CC(=O)N1CCCC1C(=O)N1CCC2(CC1)CC2CNC(=O)c1cc2ccncc2o1` (stereo not drawn) [Example 68, N-[[6-(1-acetylpyrrolidine-2-carbonyl)-6-azaspiro[2.5]octan-2-yl]methyl]furo[2,3-c]pyridine-2-carboxamide]: the IC50 was 414 nM.

Turning to `CS(=O)(=O)c1ccccc1C(=O)N1CCC2(CC1)CC2CNC(=O)c1cc2ccncc2o1` (stereo not drawn) [Example 69, N-[[6-(2-methylsulfonylbenzoyl)-6-azaspiro[2.5]octan-2-yl]methyl]furo[2,3-c]pyridine-2-carboxamide], the IC50 was 194 nM.

With `O=C(NCC1CC12CCN(C(=O)c1cccc(-n3cnnc3)c1)CC2)c1cc2ccncc2o1` (stereo not drawn) [Example 70, N-[[6-[3-(1,2,4-triazol-4-yl)benzoyl]-6-azaspiro[2.5]octan-2-yl]methyl]furo[2,3-c]pyridine-2-carboxamide], the IC50 was 492 nM.

As to `CC(=O)Nc1ccc(C(=O)N2CCC3(CC2)CC3CNC(=O)c2cc3ccncc3o2)cc1` (stereo not drawn) [Example 72, N-[[6-(4-acetamidobenzoyl)-6-azaspiro[2.5]octan-2-yl]methyl]furo[2,3-c]pyridine-2-carboxamide], the IC50 was 48.1 nM.

`CS(=O)(=O)N1CCCC(C(=O)N2CCC3(CC2)CC3CNC(=O)c2cc3ccncc3o2)C1` (stereo not drawn) [Example 73, N-[[6-(1-methylsulfonylpiperidine-3-carbonyl)-6-azaspiro[2.5]octan-2-yl]methyl]furo[2,3-c]pyridine-2-carboxamide]: the IC50 came out at 25.8 nM.

On to `CS(=O)(=O)N1CCC(C(=O)N2CCC3(CC2)CC3CNC(=O)c2cc3ccncc3o2)CC1` (stereo not drawn) [Example 74, N-[[6-(1-methylsulfonylpiperidine-4-carbonyl)-6-azaspiro[2.5]octan-2-yl]methyl]furo[2,3-c]pyridine-2-carboxamide], for which the IC50 was 169 nM.

Turning to `CC(C(=O)N1CCC2(CC1)CC2CNC(=O)c1cc2ccncc2o1)N1CCOCC1` (stereo not drawn) [Example 75, N-[[6-(2-morpholinopropanoyl)-6-azaspiro[2.5]octan-2-yl]methyl]furo[2,3-c]pyridine-2-carboxamide], the IC50 is 80.9 nM.

For the compound `CS(=O)(=O)N1CCCC1C(=O)N1CCC2(CC1)CC2CNC(=O)c1cc2ccncc2o1` (stereo not drawn) [Example 76, N-[[6-(1-methylsulfonylpyrrolidine-2-carbonyl)-6-azaspiro[2.5]octan-2-yl]methyl]furo[2,3-c]pyridine-2-carboxamide], the IC50 is 228 nM.

Regarding `O=C(NCC1CC12CCN(C(=O)CC1NC(=O)c3ccccc31)CC2)c1cc2ccncc2o1` (stereo not drawn) [Example 77, N-[[6-[2-(3-oxoisoindolin-1-yl)acetyl]-6-azaspiro[2.5]octan-2-yl]methyl]furo[2,3-c]pyridine-2-carboxamide], the IC50 stood at 1150 nM.

As to `NC(=O)N1CCC(C(=O)N2CCC3(CC2)CC3CNC(=O)c2cc3ccncc3o2)CC1` (stereo not drawn) [Example 78, N-[[6-(1-carbamoylpiperidme-4-carbonyl)-6-azaspiro[2.5]octan-2-y]methyl]furo(2,3-c]pyridine-2-carboxamide], the IC50 was 2000 nM.

`NC(=O)N1CCCC(C(=O)N2CCC3(CC2)CC3CNC(=O)c2cc3ccncc3o2)C1` (stereo not drawn) [Example 79, N-[[6-(1-carbamoylpiperidine-3-carbonyl)-6-azaspiro[2.5]octan-2-yl]methyl]furo[2,3-c]pyridine-2-carboxamide]: the IC50 was 2000 nM.

For `O=C(NCC1CC12CCN(C(=O)CC1CCS(=O)(=O)C1)CC2)c1cc2ccncc2o1` (stereo not drawn) [Example 80, N-[[6-[2-(1,1-dioxothiolan-3-yl)acetyl]-6-azaspiro[2.5]octan-2-yl]methyl]furo[2,3-c]pyridine-2-carboxamide], the IC50 came out at 1340 nM.

For `O=C(NCC1CC12CCN(C(=O)Cn1ccc(=O)[nH]c1=O)CC2)c1cc2ccncc2o1` (stereo not drawn) [Example 81, N-[[6-[2-(2,4-dioxopyrimidin-1-yl)acetyl]-6-azaspiro[2.5]octan-2-yl]methyl]furo[2,3-c]pyridine-2-carboxamide], the IC50 was 2000 nM.

Take `CC(=O)N1CCC(C(=O)N2CCC3(CC2)CC3CNC(=O)c2cc3ccncc3o2)CC1` (stereo not drawn) [Example 82, N-[[6-(1-acetylpiperidine-4-carbonyl)-6-azaspiro[2.5]octan-2-yl]methyl]furo[2,3-c]pyridine-2-carboxamide]: the IC50 worked out at 710 nM.

Turning to `O=C(NCC1CC12CCN(C(=O)c1ccc(Cn3cnnn3)cc1)CC2)c1cc2ccncc2o1` (stereo not drawn) [Example 83, N-[[6-[4-(tetrazol-1-ylmethyl)benzoyl]-6-azaspiro[2.5]octan-2-yl]methyl]furo[2,3-c]pyridine-2-carboxamide], the IC50 is 1080 nM.

For the compound `CS(=O)(=O)Nc1ccc(C(=O)N2CCC3(CC2)CC3CNC(=O)c2cc3ccncc3o2)cc1` (stereo not drawn) [Example 84, N-[[6-[4-(methanesulfonamido)benzoyl]-6-azaspiro[2.5]octan-2-yl]methyl]furo[2,3-c]pyridine-2-carboxamide], the IC50 was 185 nM.

`O=C(NCC1CC12CCN(C(=O)c1ccc(N3CCS(=O)(=O)CC3)cc1)CC2)c1cc2ccncc2o1` (stereo not drawn) [Example 85, N-[[6-[4-(1,1-dioxo-1,4-thiazinan-4-yl)benzoyl]-6-azaspiro[2.5]octan-2-yl)methyl]furo[2,3-c]pyridine-2-carboxamide]: the IC50 came out at 14.2 nM.

As for `CN1CCN(Cc2ccc(C(=O)N3CCC4(CC3)CC4CNC(=O)c3cc4ccncc4o3)cc2)CC1` (stereo not drawn) [Example 86, N-[[6-[4-[(4-methylpiperazin-1-yl)methyl]benzoyl]-6-azaspiro[2.5]octan-2-yl]methyl]furo[2,3-c]pyridine-2-carboxamide], the IC50 was determined as 4.53 nM.

In the case of `CN1CCN(Cc2ccccc2C(=O)N2CCC3(CC2)CC3CNC(=O)c2cc3ccncc3o2)CC1` (stereo not drawn) [Example 87, N-[[6-[2-[(4-methylpiperazin-1-yl)methyl]benzoyl]-6-azaspiro[2.5]octan-2-yl]methyl]furo[2,3-c]pyridine-2-carboxamide], the IC50 is 2000 nM.

For `CN1CCN(Cc2cccc(C(=O)N3CCC4(CC3)CC4CNC(=O)c3cc4ccncc4o3)c2)CC1` (stereo not drawn) [Example 88, N-[[6-[3-[(4-methylpiperazin-1-yl)methyl]benzoyl]-6-azaspiro[2.5]octan-2-yl]methyl]furo[2,3-c]pyridine-2-carboxamide], the IC50 came to 9.77 nM.

For `CN1CCN(CCC(=O)N2CCC3(CC2)CC3CNC(=O)c2cc3ccncc3o2)CC1` (stereo not drawn) [Example 89, N-[[6-[3-(4-methylpiperazin-1-yl)propanoyl]-6-azaspiro[2.5]octan-2-yl]methyl]furo[2,3-c]pyridine-2-carboxamide], the IC50 turned out to be 116 nM.

For `CC(C)N1CC(C(=O)N2CCC3(CC2)CC3CNC(=O)c2cc3ccncc3o2)CC1=O` (stereo not drawn) [Example 90, N-[[6-(1-isopropyl-5-oxo-pyrrolidine-3-carbonyl)-6-azaspiro[2.5]octan-2-yl)methyl]furo[2,3-c]pyridine-2-carboxamide], the IC50 was 183 nM.

Take `O=C1CN(CC(=O)N2CCC3(CC2)CC3CNC(=O)c2cc3ccncc3o2)CCN1` (stereo not drawn) [Example 91, N-[[6-[2-(3-oxopiperazin-1-yl)acetyl]-6-azaspiro[2.5]octan-2-yl]methyl]furo[2,3-c]pyridine-2-carboxamide]: the IC50 stood at 2000 nM.

Consider `CS(=O)(=O)c1cccc(C(=O)N2CCC3(CC2)CC3CNC(=O)c2cc3ccncc3o2)c1` (stereo not drawn) [Example 92, N-[[6-(3-methylsulfonylbenzoyl)-6-azaspiro[2.5]octan-2-yl]methyl]furo[2,3-c]pyridine-2-carboxamide], for which the IC50 came out at 152 nM.

As for `CS(=O)(=O)c1ccc(C(=O)N2CCC3(CC2)CC3CNC(=O)c2cc3ccncc3o2)cc1` (stereo not drawn) [Example 93, N-[[6-(4-methylsulfonylbenzoyl)-6-azaspiro[2.5]octan-2-yl]methyl]furo[2,3-c]pyridine-2-carboxamide], the IC50 stood at 878 nM.

For the compound `NC(=O)Nc1ccc(C(=O)N2CCC3(CC2)CC3CNC(=O)c2cc3ccncc3o2)cc1` (stereo not drawn) [Example 94, N-[[6-(4-ureidobenzoyl)-6-azaspiro[2.5]octan-2-yl]methyl]furo[2,3-c]pyridine-2-carboxamide], the IC50 amounted to 437 nM.

Turning to `CC(=O)N1CCN(CC(=O)N2CCC3(CC2)CC3CNC(=O)c2cc3ccncc3o2)CC1` (stereo not drawn) [Example 95, N-[[6-[2-(4-acetylpiperazin-1-yl)acetyl]-6-azaspiro[2.5]octan-2-yl]methyl]furo[2,3-c]pyridine-2-carboxamide], the IC50 worked out at 2000 nM.

On to `Cc1nnnn1Cc1ccc(C(=O)N2CCC3(CC2)CC3CNC(=O)c2cc3ccncc3o2)cc1` (stereo not drawn) [Example 96, N-[[6-[4-[(5-methyltetrazol-1-yl]methyl]benzoyl]-6-azaspiro[2.5]octan-2-yl]methyl]furo[2,3-c]pyridine-2-carboxamide], for which the IC50 is 711 nM.

(Values after patent publication US10730889B2, “Amido spirocyclic amide and sulfonamide derivatives” (Forma TM, LLC, priority 2012, dated 2020).)
